Measurements reported in ChEMBL document CHEMBL4706644, “Structure-Activity Relationship Studies of Pyrimidine-4-Carboxamides as Inhibitors of N-Acylphosphatidylethanolamine Phospholipase D” (J Med Chem, 2021).

Molecular target: T1, N-acyl-phosphatidylethanolamine-hydrolyzing phospholipase D (Homo sapiens, UniProt Q6IQ20)
Test: Inhibition of full length human NAPE-PLD expressed in HEK293 cells using radiolabelled diether-NAPE as substrate incubated for 20 mins by liquid scintillation counter analysis

T1 sequence (Q6IQ20 whole entry): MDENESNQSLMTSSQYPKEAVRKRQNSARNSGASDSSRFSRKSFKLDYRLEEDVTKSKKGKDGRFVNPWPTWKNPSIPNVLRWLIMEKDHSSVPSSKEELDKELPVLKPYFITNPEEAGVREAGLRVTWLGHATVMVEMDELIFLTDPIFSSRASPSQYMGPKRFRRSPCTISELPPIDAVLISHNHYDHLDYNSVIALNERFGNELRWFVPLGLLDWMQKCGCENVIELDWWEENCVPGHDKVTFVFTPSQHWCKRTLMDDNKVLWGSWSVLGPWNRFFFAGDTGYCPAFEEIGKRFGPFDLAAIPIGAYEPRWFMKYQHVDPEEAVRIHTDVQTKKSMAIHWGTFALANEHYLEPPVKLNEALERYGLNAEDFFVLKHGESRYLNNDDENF

**Q.** CCCCCCCCCCCCCC(=O)NCCNP(=O)(O)OCC(COC(=O)CCCCC)OC(=O)CCCCC (stereo unspecified) was tested. Which IC50 did it give?
**A.** Its IC50 is 10 µM.

Molecular target: T1, N-acyl-phosphatidylethanolamine-hydrolyzing phospholipase D
Test: Inhibition of full length human NAPE-PLD expressed in HEK293T cell lysate using PED6 as substrate preincubated for 30 mins followed by substrate addition and measured at 2 mins interval for 1 hr by tecan-plate reader analysis
Assay type: subcellular

**Q.** Which IC50 does the source give for CN(CCc1ccccc1)c1nc(C(=O)NCc2nccs2)cc(N2CCOCC2)n1 here?
**A.** Its IC50 is 32.4 µM.

**Q.** For O=C(NCC1CC1)c1cc(N2CCOCC2)nc(NCc2ccccc2)n1, which IC50 is on record?
**A.** Its IC50 is 22.9 µM.

**Q.** Which IC50 does the source give for CNC(=O)c1cc(N2CCOCC2)nc(N(C)CCc2ccccc2)n1 here?
**A.** Its IC50 is 13.5 µM.

**Q.** For CN(CCc1ccccc1)c1nc(C(N)=O)cc(N2CCOCC2)n1, which IC50 is on record?
**A.** Its IC50 is 17.8 µM.

**Q.** With O=C(NCC1CC1)c1cc(N2CCOCC2)ncn1 as the compound, how does the IC50 read?
**A.** Its IC50 is over 50.1 µM.

**Q.** Which IC50 does the source give for O=C(NCC1CC1)c1cc(N2CCOCC2)nc(Cl)n1 here?
**A.** The IC50 was over 50.1 µM.

**Q.** For O=C(NCC1CC1)c1cc(N2CCOCC2)nc(N(CCc2ccccc2)c2ccccc2)n1, which IC50 is on record?
**A.** The IC50 was 1.12 µM.

**Q.** CN(CCc1ccccc1)c1nc(C(=O)NCC2CC2)cc(N2CCS(=O)(=O)CC2)n1 was tested. Which IC50 did it give?
**A.** The IC50 was over 50.1 µM.

**Q.** CN(CCc1ccccc1)c1nc(C(=O)NCc2ccccc2)cc(N2CCOCC2)n1 was tested. Which IC50 did it give?
**A.** Its IC50 is 23.4 µM.

**Q.** With CN(CCc1ccccc1)c1nc(-c2ncc(C3CC3)[nH]2)cc(N2CCOCC2)n1 as the compound, how does the IC50 read?
**A.** The IC50 was 40.7 µM.

**Q.** Which IC50 does the source give for CNC(=O)CNC(=O)c1cc(N2CCOCC2)nc(N(C)CCc2ccccc2)n1 here?
**A.** Its IC50 is 17 µM.

**Q.** How did the IC50 turn out when CN(CCc1ccccc1)c1nc(NC(=O)CC2CC2)cc(N2CCOCC2)n1 was run?
**A.** The IC50 was 7.59 µM.

**Q.** How did the IC50 turn out when CN(CCc1ccccc1)c1nc(C(=O)NCC(F)(F)F)cc(N2CCOCC2)n1 was run?
**A.** Its IC50 is 33.1 µM.

**Q.** CN(CCc1ccccc1)c1nc(C(=O)NCC2CC2)nc(N2CCOCC2)n1 was tested. Which IC50 did it give?
**A.** The IC50 was over 50.1 µM.

**Q.** For CN(CC1CC1)C(=O)c1cc(N2CCOCC2)nc(N(C)CCc2ccccc2)n1, which IC50 is on record?
**A.** The IC50 was over 50.1 µM.

**Q.** With O=C(NCC1CC1)c1cc(N2CCOCC2)nc(N(CCc2ccccc2)Cc2ccccc2)n1 as the compound, how does the IC50 read?
**A.** The IC50 was 0.741 µM.

**Q.** How did the IC50 turn out when CN(CCc1ccccc1)c1nc(C(=O)NCC(C)(C)C)cc(N2CCOCC2)n1 was run?
**A.** The IC50 was 21.4 µM.

**Q.** Which IC50 does the source give for CCCCCCNC(=O)c1cc(N2CCOCC2)nc(N(C)CCc2ccccc2)n1 here?
**A.** Its IC50 is 34.7 µM.

**Q.** CN(CCc1ccccc1)c1nc(C(=O)NCC2CC2)cc(N2CCN(C(=O)OCc3ccccc3)CC2)n1 was tested. Which IC50 did it give?
**A.** The IC50 was 12.9 µM.

**Q.** For O=C(NCC1CC1)c1cc(N2CCS(=O)(=O)CC2)nc(N2CCC[C@@H](c3ccccc3)C2)n1, which IC50 is on record?
**A.** The IC50 was 17.4 µM.

**Q.** How did the IC50 turn out when CN(CCc1ccccc1)c1nc(C(=O)NCc2ccc(-c3ccccc3)cc2)cc(N2CCOCC2)n1 was run?
**A.** The IC50 was over 50.1 µM.

**Q.** How did the IC50 turn out when CN(CCc1ccccc1)c1nc(C(=O)O)cc(N2CCOCC2)n1 was run?
**A.** Its IC50 is over 50.1 µM.

**Q.** CN(CCc1ccccc1)c1nc(C(=O)NCC2CC2)cc(N2CCOCC2)n1 was tested. Which IC50 did it give?
**A.** The IC50 was 0.813 µM.

**Q.** How did the IC50 turn out when COCCNC(=O)c1cc(N2CCOCC2)nc(N(C)CCc2ccccc2)n1 was run?
**A.** The IC50 was 11 µM.

**Q.** CN(CCc1ccccc1)c1nc(C(=O)NCC#N)cc(N2CCOCC2)n1 was tested. Which IC50 did it give?
**A.** Its IC50 is 30.9 µM.

**Q.** CN(CCc1ccccc1)c1nc(C(=O)NCC(=O)O)cc(N2CCOCC2)n1 was tested. Which IC50 did it give?
**A.** The IC50 was over 50.1 µM.

**Q.** With O=C(NCC1CC1)c1cc(N2CCOCC2)nc(N2CCCCC2CC2CCCCC2)n1 (racemic) as the compound, how does the IC50 read?
**A.** Its IC50 is 25.1 µM.

Molecular target: T2, N-acyl-phosphatidylethanolamine-hydrolyzing phospholipase D (Mus musculus, UniProt Q8BH82)
T2 sequence (Q8BH82 whole entry): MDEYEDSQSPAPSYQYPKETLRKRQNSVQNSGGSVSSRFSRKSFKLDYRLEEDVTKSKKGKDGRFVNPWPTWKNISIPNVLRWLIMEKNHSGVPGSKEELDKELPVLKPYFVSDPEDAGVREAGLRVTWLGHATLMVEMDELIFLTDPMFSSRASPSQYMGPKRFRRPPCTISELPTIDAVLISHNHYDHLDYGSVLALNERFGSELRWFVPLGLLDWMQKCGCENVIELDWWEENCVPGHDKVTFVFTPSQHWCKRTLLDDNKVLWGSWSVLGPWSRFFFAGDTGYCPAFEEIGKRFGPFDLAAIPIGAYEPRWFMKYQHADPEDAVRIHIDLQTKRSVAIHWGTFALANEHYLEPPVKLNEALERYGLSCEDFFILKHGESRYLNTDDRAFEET
Test: Inhibition of full length mouse NAPE-PLD expressed in HEK293T cell lysate using PED6 as substrate preincubated for 30 mins followed by substrate addition and measured at 2 mins interval for 1 hr by tecan-plate reader analysis
Assay type: subcellular

**Q.** How did the IC50 turn out when O=C(NCC1CC1)c1cc(N2CC[C@@H](O)C2)nc(N2CCC[C@H](c3ccccc3)C2)n1 was run?
**A.** The IC50 was 1.26 µM.

**Q.** How did the IC50 turn out when O=C(NCC1CC1)c1cc(N2CCOCC2)nc(N2CCC[C@@H](c3ccccc3)C2)n1 was run?
**A.** Its IC50 is 0.575 µM.

**Q.** O=C(NCC1CC1)c1cc(N2CC[C@H](O)C2)nc(N2CCC[C@H](c3ccccc3)C2)n1 was tested. Which IC50 did it give?
**A.** The IC50 was 1.82 µM.

**Q.** How did the IC50 turn out when O=C(NCC1CC1)c1cc(N2CC[C@@H](O)C2)nc(N2CCC[C@@H](c3ccccc3)C2)n1 was run?
**A.** Its IC50 is 0.38 µM.

**Q.** With O=C(NCC1CC1)c1cc(N2CCS(=O)(=O)CC2)nc(N2CCC[C@@H](c3ccccc3)C2)n1 as the compound, how does the IC50 read?
**A.** Its IC50 is 9.55 µM.

**Q.** How did the IC50 turn out when CN(C)c1cc(C(=O)NCC2CC2)nc(N2CCC[C@@H](c3ccccc3)C2)n1 was run?
**A.** The IC50 was 0.389 µM.

**Q.** How did the IC50 turn out when CN(CCc1ccccc1)c1nc(C(=O)NCC2CC2)cc(N2CCOCC2)n1 was run?
**A.** Its IC50 is 3.31 µM.

**Q.** O=C(NCC1CC1)c1cc(N2CC[C@H](O)C2)nc(N2CCC[C@@H](c3ccccc3)C2)n1 was tested. Which IC50 did it give?
**A.** Its IC50 is 0.447 µM.
